Reference: ChEMBL document CHEMBL1201862, “PubChem BioAssay data set” (2004)
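Step 1: Grow cells in 96-well plates. Step 2: Expose to compound for 48 hours at 5 concentrations. Step 3: Interpolate endpoints linearly; if unreached, use highest concentration. GI50 = concentration required for 50% inhibition of growth.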 Calls of active or inactive are those of the source. No stated cut-off is given here; in the data, active = GI50 up to about 1.1 µM and inactive = higher.

Legend:
Test in all cases: NCI anticancer screen, dose series, 48 h
OVCAR-8 = system: OVCAR-8
SF-268 = system: SF-268
UO-31 = system: UO-31
HCT-116 = system: HCT-116
EKVX = system: EKVX
NCI-H522 = system: NCI-H522
PC-3 = system: PC-3
RXF 393 = system: RXF 393
SF-295 = system: SF-295
COLO 205 = system: COLO 205
LOX IMVI = system: LOX IMVI
786-0 = system: 786-0
MDA-MB-231 = system: MDA-MB-231
Malme-3M = system: Malme-3M
U-251 = system: U-251
T47D = system: T47D
HOP-92 = system: HOP-92
Hs-578T = system: Hs-578T
SNB-75 = system: SNB-75
TK-10 = system: TK-10

Compound | GI50 (OVCAR-8) | GI50 (SF-268) | GI50 (UO-31) | GI50 (HCT-116) | GI50 (EKVX) | GI50 (NCI-H522) | GI50 (PC-3) | GI50 (RXF 393) | GI50 (SF-295) | GI50 (COLO 205) | GI50 (LOX IMVI) | GI50 (786-0) | GI50 (MDA-MB-231) | GI50 (Malme-3M) | GI50 (U-251) | GI50 (T47D) | GI50 (HOP-92) | GI50 (Hs-578T) | GI50 (SNB-75) | GI50 (TK-10)
Cc1c(Cl)cc(C(C)(C)C)c(O)c1Cc1c(C)c(Cl)cc(C(C)(C)C)c1O | 1.49 µM (inactive) | 1.74 µM (inactive) | 1.82 µM (inactive) | 0.536 µM (active) | 1.4 µM (inactive) | 0.299 µM (active) | 1.64 µM (inactive) | 0.9 µM (active) | 2.07 µM (inactive) | 1.12 µM (active) | 1.56 µM (inactive) | 1.73 µM (inactive) | 1.65 µM (inactive) | 0.406 µM (active) | 1.51 µM (inactive) | 0.562 µM (active) | 0.304 µM (active) | 0.635 µM (active) | 1.5 µM (inactive) | 2.04 µM (inactive)
CN(N=O)N1C(=O)SCC(c2ccccc2)(c2ccccc2)C1=O | 16.2 µM (inactive) | 32.1 µM (inactive) | 25.8 µM (inactive) | 40.4 µM (inactive) | 34.7 µM (inactive) | 23.3 µM (inactive) | 42.4 µM (inactive) | 22.3 µM (inactive) | 35.6 µM (inactive) | 25.3 µM (inactive) | 30 µM (inactive) | 46.6 µM (inactive) | 37.3 µM (inactive) | 34.1 µM (inactive) | 28.4 µM (inactive) | 67.8 µM (inactive) | 38.9 µM (inactive) | 56.8 µM (inactive) | 25.6 µM (inactive) | 50.2 µM (inactive)
CCCCCCCCOCC1S(=O)(=O)OCCOS1(=O)=O | > 100 µM (inactive) | > 100 µM (inactive) | > 100 µM (inactive) | > 100 µM (inactive) | > 100 µM (inactive) | > 100 µM (inactive) | > 100 µM (inactive) | > 100 µM (inactive) | > 100 µM (inactive) | > 100 µM (inactive) | > 100 µM (inactive) | > 100 µM (inactive) | > 100 µM (inactive) | > 100 µM (inactive) | > 100 µM (inactive) | > 100 µM (inactive) | > 100 µM (inactive) | > 100 µM (inactive) | > 100 µM (inactive) | > 100 µM (inactive)
CS(=O)(=O)Nc1ccc2ccccc2c1-c1c(NS(C)(=O)=O)ccc2ccccc12 | > 25 µM (inactive) | > 25 µM (inactive) | > 25 µM (inactive) | > 18.6 µM (inactive) | > 25 µM (inactive) | > 25 µM (inactive) | > 25 µM (inactive) | > 21.5 µM (inactive) | > 25 µM (inactive) | > 25 µM (inactive) | > 25 µM (inactive) | > 15.5 µM (inactive) | > 25 µM (inactive) | > 25 µM (inactive) | > 25 µM (inactive) | > 25 µM (inactive) | > 25 µM (inactive) | > 25 µM (inactive) | > 19.1 µM (inactive) | > 25 µM (inactive)
COc1cc2c(cc1OCc1ccccc1)NC(=O)[C@@H]1CCCN1C2=O | > 100 µM (inactive) | > 100 µM (inactive) | > 100 µM (inactive) | > 100 µM (inactive) | > 100 µM (inactive) | > 100 µM (inactive) | > 100 µM (inactive) | 82 µM (inactive) | > 100 µM (inactive) | > 100 µM (inactive) | > 100 µM (inactive) | > 100 µM (inactive) | > 100 µM (inactive) | > 100 µM (inactive) | > 100 µM (inactive) | > 100 µM (inactive) | > 100 µM (inactive) | > 100 µM (inactive) | > 100 µM (inactive) | > 100 µM (inactive)
Cc1cccc(-c2nc3ccc([N+](=O)[O-])cc3c(=O)o2)c1 | 46.7 µM (inactive) | 60.3 µM (inactive) | 43.8 µM (inactive) | 42.8 µM (inactive) | – | 32.3 µM (inactive) | 58.5 µM (inactive) | > 100 µM (inactive) | 36.1 µM (inactive) | > 100 µM (inactive) | 26.2 µM (inactive) | 48.8 µM (inactive) | > 100 µM (inactive) | 51.4 µM (inactive) | 44.4 µM (inactive) | 47.5 µM (inactive) | 16 µM (inactive) | 22 µM (inactive) | > 100 µM (inactive) | 59.3 µM (inactive)
O=C(c1nc2ccc([N+](=O)[O-])cc2nc1O)C(O)c1ccc2c(c1)OCO2 (centres undefined) | > 100 µM (inactive) | > 100 µM (inactive) | > 100 µM (inactive) | 52.7 µM (inactive) | > 100 µM (inactive) | 14.8 µM (inactive) | > 100 µM (inactive) | > 100 µM (inactive) | > 52.5 µM (inactive) | > 96.4 µM (inactive) | > 67.9 µM (inactive) | > 100 µM (inactive) | > 100 µM (inactive) | > 100 µM (inactive) | > 100 µM (inactive) | > 100 µM (inactive) | > 100 µM (inactive) | > 100 µM (inactive) | > 100 µM (inactive) | > 100 µM (inactive)
COc1cc(OC)c(OC)cc1/C=N/N=C(\N)NO | > 100 µM (inactive) | > 100 µM (inactive) | > 100 µM (inactive) | > 100 µM (inactive) | > 100 µM (inactive) | > 100 µM (inactive) | > 100 µM (inactive) | > 100 µM (inactive) | 51.1 µM (inactive) | 80 µM (inactive) | > 100 µM (inactive) | > 100 µM (inactive) | > 100 µM (inactive) | > 100 µM (inactive) | > 100 µM (inactive) | > 100 µM (inactive) | 77.6 µM (inactive) | > 100 µM (inactive) | 21.9 µM (inactive) | > 100 µM (inactive)
COC(=O)C1=C(C)NC(C)=C([N+](=O)[O-])C1c1cccc(NO)c1 (centres undefined) | 5.81 µM (inactive) | 6.01 µM (inactive) | 2.96 µM (inactive) | 2.37 µM (inactive) | 4.34 µM (inactive) | 3.67 µM (inactive) | 2.94 µM (inactive) | 6.5 µM (inactive) | 3.79 µM (inactive) | 2.06 µM (inactive) | 3.5 µM (inactive) | 4.48 µM (inactive) | 3.64 µM (inactive) | 4.31 µM (inactive) | 5.22 µM (inactive) | 3.27 µM (inactive) | 3.6 µM (inactive) | 2.84 µM (inactive) | 6.89 µM (inactive) | 5.12 µM (inactive)
COC(=O)CCC(C)[C@H]1CCC2C3C(C[C@H](OC(C)=O)[C@@]21C)[C@@]1(C)CCC2(C[C@H]1C[C@H]3OC(C)=O)OOC1(CCCC1)OO2 (some centres undefined) | 34.4 µM (inactive) | 25.6 µM (inactive) | 10.1 µM (inactive) | 6.43 µM (inactive) | 11.1 µM (inactive) | 23.4 µM (inactive) | 4.47 µM (inactive) | 63.1 µM (inactive) | 83.6 µM (inactive) | 30.4 µM (inactive) | 7 µM (inactive) | 29.6 µM (inactive) | 43.3 µM (inactive) | > 100 µM (inactive) | 8.93 µM (inactive) | 7.19 µM (inactive) | 9.62 µM (inactive) | 16.5 µM (inactive) | 96.4 µM (inactive) | 48.3 µM (inactive)
